Nine compounds from ChEMBL document CHEMBL1147697, “Synthesis and structure-activity relationship of a novel, achiral series of TNF-alpha converting enzyme inhibitors” (Bioorg Med Chem Lett, 2006) can be followed below.

The structures appear in SMILES notation.

Data set [1] is described as follows: Dissociation constant, pKa of the compound. The class given is physicochemical.
Data set [2] is described as follows: Partition coefficient, logP of the compound. To be noted: octanol/water. The class given is physicochemical.
A short description of data set [3]: Tmax in Beagle dog at 10 mg/kg, po. Type of data set: ADME, organism-based, Canis lupus familiaris. To be noted: in vivo. Also noted: dose 10 mg/kg, route oral.
The nature of data set [4]: Half life in Sprague-Dawley rat at 30 mg/kg, po. Type of data set: ADME, organism-based. Also noted: dose 30 mg/kg, route oral. As to conditions: in vivo.
A short description of data set [5]: AUC in Sprague-Dawley rat at 30 mg/kg, po. As to conditions: plasma. Also noted: dose 30 mg/kg, route oral. The class given is ADME, organism-based.
A short description of data set [6]: Oral bioavailability in Sprague-Dawley rat at 30 mg/kg, po. Type of data set: ADME, organism-based. As to conditions: in vivo.
Data set [7] is described as follows: AUC in Sprague-Dawley rat at 2 mg/kg, iv. The class given is ADME, organism-based. As to conditions: plasma. Also noted: dose 2 mg/kg, route intravenous.
Data set [8] can be described thus: Stability in chimp liver S9 fraction after 30 mins. Type of data set: ADME, Pan troglodytes. As to conditions: chimpanzee, read-out: Stability.
A short description of data set [9]: Stability in human liver S9 fraction after 30 mins. Type of data set: ADME, organism-based. To be noted: read-out: Stability.
Data set [10] can be described thus: Clearance in Beagle dog at 2 mg/kg, iv. Type of data set: ADME, organism-based, Canis lupus familiaris. Also noted: dose 2 mg/kg, route intravenous. To be noted: in vivo.
Data set [11] in a line: Tmax in Sprague-Dawley rat at 30 mg/kg, po. The class given is ADME, organism-based. Also noted: dose 30 mg/kg, route oral. To be noted: in vivo.
A short description of data set [12]: Volume of distribution in Beagle dog at 2 mg/kg, iv. The class given is ADME, organism-based, Canis lupus familiaris. Also noted: dose 2 mg/kg, route intravenous. As to conditions: in vivo, read-out: Vdss.
A short description of data set [13]: AUC in Beagle dog at 10 mg/kg, po. The class given is ADME, organism-based, Canis lupus familiaris. To be noted: plasma. Also noted: dose 10 mg/kg, route oral.
Data set [14] in a line: Cmax in Beagle dog at 10 mg/kg, po. Type of data set: ADME, organism-based, Canis lupus familiaris. Also noted: dose 10 mg/kg, route oral. As to conditions: in vivo.
Data set [15] in a line: Half life in Beagle dog at 2 mg/kg, iv. Type of data set: ADME, organism-based, Canis lupus familiaris. Also noted: dose 2 mg/kg, route intravenous. As to conditions: in vivo.
Data set [16] is described as follows: Clearance in Sprague-Dawley rat at 2 mg/kg, iv. The class given is ADME, organism-based. Also noted: dose 2 mg/kg, route intravenous. To be noted: in vivo.
Data set [17] can be described thus: AUC in Beagle dog at 2 mg/kg, iv. The class given is ADME, organism-based, Canis lupus familiaris. The arrangement: dose 2 mg/kg, route intravenous. As to conditions: plasma.
Data set [18] can be described thus: Volume of distribution in Sprague-Dawley rat at 2 mg/kg, iv. To be noted: in vivo, read-out: Vdss. Also noted: dose 2 mg/kg, route intravenous. Type of data set: ADME, organism-based.
The nature of data set [19]: Oral bioavailability in Beagle dog at 10 mg/kg, po. The class given is ADME, organism-based, Canis lupus familiaris. To be noted: in vivo.
Data set [20] is described as follows: Half life in Sprague-Dawley rat at 2 mg/kg, iv. Type of data set: ADME, organism-based. The arrangement: dose 2 mg/kg, route intravenous. As to conditions: in vivo.
Data set [21] is described as follows: Cmax in Sprague-Dawley rat at 30 mg/kg, po. The class given is ADME, organism-based. Also noted: dose 30 mg/kg, route oral. To be noted: in vivo.
A short description of data set [22]: Half life in Beagle dog at 10 mg/kg, po. Type of data set: ADME, organism-based, Canis lupus familiaris. Also noted: dose 10 mg/kg, route oral. As to conditions: in vivo.
A short description of data set [23]: Half life in Sprague-Dawley rat at 6.7 mg/kg, po. The class given is ADME, organism-based. The arrangement: dose 6.7 mg/kg, route oral. To be noted: in vivo.
The nature of data set [24]: AUC in Beagle dog at 1 mg/kg, po. Type of data set: ADME, organism-based, Canis lupus familiaris. Also noted: dose 1 mg/kg, route oral. To be noted: plasma.
Data set [25] in a line: Volume of distribution in Sprague-Dawley rat at 3.3 mg/kg, iv. The arrangement: dose 3.3 mg/kg, route intravenous. To be noted: in vivo, read-out: Vdss. Type of data set: ADME, organism-based.
Data set [26] is described as follows: AUC in Beagle dog at 0.5 mg/kg, iv. Type of data set: ADME, organism-based, Canis lupus familiaris. Also noted: dose 0.5 mg/kg, route intravenous. As to conditions: plasma.
Data set [27] can be described thus: Cmax in Beagle dog at 1 mg/kg, po. To be noted: in vivo. Type of data set: ADME, organism-based, Canis lupus familiaris. Also noted: dose 1 mg/kg, route oral.
In data set [28] the test system is Rattus norvegicus. Nature of the data set: AUC in Sprague-Dawley rat at 6.7 mg/kg, po. Type of data set: ADME, organism-based, Plasma. To be noted: in vivo. Also noted: dose 6.7 mg/kg, route oral.
Data set [29] is described as follows: Volume of distribution in Beagle dog at 0.5 mg/kg, iv. The class given is ADME, organism-based, Canis lupus familiaris. The arrangement: dose 0.5 mg/kg, route intravenous. To be noted: in vivo, read-out: Vdss.
Data set [30] can be described thus: Clearance in Sprague-Dawley rat at 3.3 mg/kg, iv. Type of data set: ADME, organism-based. The arrangement: dose 3.3 mg/kg, route intravenous. To be noted: in vivo.
The test system of data set [31] is Rattus norvegicus. Nature of the data set: Oral bioavailability in Sprague-Dawley rat at 6.7 mg/kg, po. The class given is ADME, organism-based. To be noted: in vivo.
The nature of data set [32]: Stability in dog liver S9 fraction after 30 mins. As to conditions: read-out: Stability. Type of data set: ADME, organism-based, Canis lupus familiaris.
Data set [33] can be described thus: Half life in Sprague-Dawley rat at 3.3 mg/kg, iv. Type of data set: ADME, organism-based. Also noted: dose 3.3 mg/kg, route intravenous. As to conditions: in vivo.
The nature of data set [34]: Oral bioavailability in Beagle dog at 1 mg/kg, po. The class given is ADME, organism-based, Canis lupus familiaris. As to conditions: in vivo.
Data set [35] in a line: Tmax in Sprague-Dawley rat at 6.7 mg/kg, po. The class given is ADME, organism-based. Also noted: dose 6.7 mg/kg, route oral. To be noted: in vivo.
Data set [36] is described as follows: Cmax in Sprague-Dawley rat at 6.7 mg/kg, po. The class given is ADME, organism-based. The arrangement: dose 6.7 mg/kg, route oral. To be noted: in vivo.
A short description of data set [37]: Tmax in Beagle dog at 1 mg/kg, po. The class given is ADME, organism-based, Canis lupus familiaris. The arrangement: dose 1 mg/kg, route oral. As to conditions: in vivo.
In data set [38] the test system is Rattus norvegicus. Nature of the data set: AUC in Sprague-Dawley rat at 3.3 mg/kg, iv. The class given is ADME, organism-based, Plasma. The arrangement: dose 3.3 mg/kg, route intravenous. As to conditions: in vivo.
A short description of data set [39]: Clearance in Beagle dog at 0.5 mg/kg, iv. The arrangement: dose 0.5 mg/kg, route intravenous. The class given is ADME, organism-based, Canis lupus familiaris. As to conditions: in vivo.
A short description of data set [40]: Stability in rat liver S9 fraction after 30 mins. Type of data set: ADME, organism-based. To be noted: read-out: Stability.
The nature of data set [41]: Half life in Beagle dog at 1 mg/kg, po. The class given is ADME, organism-based, Canis lupus familiaris. The arrangement: dose 1 mg/kg, route oral. As to conditions: in vivo.
The nature of data set [42]: Half life in Beagle dog at 0.5 mg/kg, iv. The class given is ADME, organism-based, Canis lupus familiaris. The arrangement: dose 0.5 mg/kg, route intravenous. As to conditions: in vivo.

As to `Cc1cc(COc2ccc(C(=O)NC3(CC(=O)NO)CCCCC3)cc2)c2ccccc2n1`, the pKa (commonly the pH at which an ionisable group is half protonated) in data set [1] came out at 10.1. Also, the logP (usually a log measure of how a compound divides between an organic and an aqueous phase) in [2] worked out at 1.62.
`Cc1cc(COc2ccc(C(=O)NC3(CC(=O)NO)CCOCC3)cc2)c2ccccc2n1`: the Tmax (commonly the time at which the peak concentration occurs) amounted to 0.75 h in [3] and 0.4 h in [11]. The half-life (usually the time in which the quantity being followed falls by half) is 1.8 h in data set [4], 4.2 h in data set [15], 0.3 h in data set [20] and 4 h in data set [22]. The AUC (commonly concentration integrated over time) in [5] was found to be 4.86 µM·h; in data set [7], 2.21 µM·h; in data set [13] it was 7.72 µM·h; in data set [17], 1.97 µM·h. The bioavailability (usually dose-corrected exposure relative to a reference, in per cent) in data set [6] was determined as 15%; in data set [19], 79%. In addition, the remaining at 0.5 h in data set [8] was determined as 36.7%; in data set [9], 83.8%. Further, the clearance (commonly the rate of elimination divided by the concentration) was 38.3 mL/min/kg in [10] and 26.7 mL/min/kg in data set [16]. In addition, the Vd is 2.5 L/kg in data set [12] and 0.7 L/kg in [18]. The Cmax (usually the peak of the concentration-time curve) was found to be 4.49 µM in data set [14] and 3.75 µM in data set [21].
Compound `CCS(=O)(=O)CCN1CCC(CC(=O)NO)(NC(=O)c2ccc(OCc3cc(C)nc4ccccc34)cc2)CC1` displayed a pKa in [1] of 6.06. In addition, in data set [2], the lipophilicity (logP) turned out to be 2.48.
For the compound `Cc1cc(COc2ccc(C(=O)NC3(CC(=O)NO)CCN(C4=NCCS4)CC3)cc2)c2ccccc2n1`, the pKa in data set [1] was 7.23. Also, in [2], the logP was found to be 2.78.
As to `Cc1cc(COc2ccc(C(=O)NC3(CC(=O)NO)CCN(C(C)(C)C)CC3)cc2)c2ccccc2n1`, the pKa in [1] came to 9. The compound further came in with a lipophilicity (logP) in [2] of 1.95.
As for `Cc1cc(COc2ccc(C(=O)NC3(CC(=O)NO)CCN(CCF)CC3)cc2)c2ccccc2n1`, the pKa in [1] was determined as 7.2. In data set [2], this compound gave a log partition coefficient (logP) of 2.7.
Turning to `Cc1cc(COc2ccc(C(=O)NC3(CC(=O)NO)CCNCC3)cc2)c2ccccc2n1`, the half-life in data set [23] was 2.2 h; in data set [33], 2.1 h; in data set [41], 2.1 h; in data set [42], 1.5 h. The AUC in [24] was found to be 0.343 µM·h; in [26], 2.19 µM·h; in the data set with Rattus norvegicus [28], 8.358 µM·h; with Rattus norvegicus [38], 11.359 µM·h. In addition, the Vd in [25] and in data set [29] was 0.3 L/kg throughout. In addition, the highest concentration (Cmax) in data set [27] was found to be 0.126 µM; in data set [36] it was 2.48 µM. Further, the results for the clearance in data set [30] and in data set [39] were 10 mL/min/kg and 5 mL/min/kg, respectively. Besides, the remaining at 0.5 h is 100% in data set [8], 92% in data set [9], 100% in data set [32] and 100% in data set [40]. The compound further showed a F in the data set with Rattus norvegicus [31] of 17%. The pKa in [1] came to 8.4. Also, the bioavailability in [34] was 8%. Besides, in data set [2], the lipophilicity (logP) was 2.13. The time of peak concentration (Tmax) in data set [35] came to 0.3 h; in data set [37] it was 0.63 h.
In data set [1], `Cc1cc(COc2ccc(C(=O)NC3(CC(=O)NO)CCN(CC(C)(C)C)CC3)cc2)c2ccccc2n1` had a pKa of 7.75. Further, in data set [2], the lipophilicity (logP) turned out to be 3.66.
Take `C#CC(C)(C)N1CCC(CC(=O)NO)(NC(=O)c2ccc(OCc3cc(C)nc4ccccc34)cc2)CC1`: the pKa in [1] was 6.58. This compound displayed a logP in [2] of 3.43.
